# Data published in US20240099951A1, “HAIR GROWTH STIMULANT” (ADJUVANT HOLDINGS CO., LTD., priority 2020, published 2024).
# Experiments:
# [1] = test system: hair groups derived from C57BL/6N dorsal body hair skin transplanted in Balb/c nu/nu mice; assay: Evaluation of hair-diameter-increasing activity (hair shafts grown after third cycle of Exemplary Test 1); assay type: in vivo
# Protocol: Dorsal body hair skin was collected from C57BL/6N mice (SLC) of age 7 to 8 weeks in accordance with a procedure similar to that at Exemplary Test 1, above, the drug being applied after the hair groups derived from the dorsal body hair skin that had been fabricated were transplanted in Balb/c nu/nu mice (SLC) of age 4 to 6 weeks. Testing and breeding of animals complied with pertinent laws, regulations, ordinances, and guidelines, and was performed with the approval of the Experimental Ethics Review Board of the Institute of Physical and Chemical Research. The following three solutions were used during testing. • 60% aqueous ethanol solution • 5% minoxidil solution • 1% phytosphingosine solution Measurement of increase in hair diameter was carried out using hair shafts which had grown following completion of the third cycle at Exemplary Test 1. Of the hair shafts that were collected, two zigzag hairs were used. Three locations were selected in regions where diameter was large in the central portions thereof using a square 100 μm on a side. Measurement of selected regions was carried out at five locations. Hairs as they existed following application of the drug were used for measurement of hair shaft diameter.
# BALB/c-nu/nu mice = assay: Evaluation of mitogenic activity (BrdU immunostaining of skin tissue); assay type: in vivo; conditions: once per day for 7 days
# Protocol: Dorsal body hair skin was collected from BALB/c-nu/nu mice (Japan SLC, Inc.; Japan) of age 7 to 8 weeks. Testing and breeding of animals complied with pertinent laws, regulations, ordinances, and guidelines, and was performed with the approval of the Experimental Ethics Review Board of the Institute of Physical and Chemical Research. The following drugs were respectively prepared. • Working Example: 3% phytosphingosine solution • Comparative Example: 60% aqueous ethanol solution A micropipette was used to apply 25 μL of the drug to the left and right dorsal regions of the BALB/c-nu/nu mice. A dryer was thereafter used to cause cool air to be directed at the location where this was applied and rapidly dry the drug. This procedure was carried out in repetitive fashion four times at each the left and right dorsal regions. This drug application procedure was carried out for seven days starting from the day following depilation. 24 hours and 48 hours prior to collection of dorsal body hair skin from BALB/c-nu/nu mice on which the drug had been applied for 7 days, a syringe (Terumo Corporation; Japan) was used to administer 0.5 mL of 10 mg/mL BrdU/physiological saline solution to the abdomen in the region of the hind legs of each mouse. Following euthanization by cervical dislocation of the BALB/c-nu/nu mice on the eighth day at the same time as when administration had been carried out, skin tissue was collected in a manner such as would not cause damage to the hair bulb. The collected skin tissue was immersed for 16 to 24 hours in SuperFix (Toyobo Co., Ltd.; Japan) fixative solution, following which this was washed four times in 1×PBS, placed in fresh 1X PBS, and stored. The necessary portion of the collected skin tissue was cut out therefrom, and a paraffin fluid exchange apparatus (Leica Microsystems GmbH; Germany) was used to fabricate a paraffin block therefrom. […] BrdU counts were measured at three locations of 100 μm^2 for the epidermal layer and the dermal layer, measurement being carried out at three sites of size on the same order for the hair follicle. […]
structure (smiles),measurement,setting,value
CCCCCCCCCCCCCC[C@@H](O)[C@@H](O)[C@@H](N)CO [phytosphingosine],Hair shaft diameter,"[1]; 1% phytosphingosine solution applied, hair shafts after third cycle",20.15 μm
same,hair shaft diameter as percent of control,[1]; 1% phytosphingosine solution vs 60% aqueous ethanol solution,127%
same,mitogenic activity (BrdU counts) as compared with the negative control and the positive control,BALB/c-nu/nu mice; 3% phytosphingosine solution,trend toward increased mitogenic activity
same,mitogenic activity at the basal layer of the epidermis,BALB/c-nu/nu mice; 3% phytosphingosine solution,increase in mitogenic activity
same,mitogenic activity at the hair follicle,BALB/c-nu/nu mice; 3% phytosphingosine,improved
